The target in experiment [1] is T1, Corticotropin-releasing factor receptor 2/Corticotropin-releasing factor-binding protein (Homo sapiens, UniProt P24387+Q13324).
T1 sequence (Q13324 whole entry): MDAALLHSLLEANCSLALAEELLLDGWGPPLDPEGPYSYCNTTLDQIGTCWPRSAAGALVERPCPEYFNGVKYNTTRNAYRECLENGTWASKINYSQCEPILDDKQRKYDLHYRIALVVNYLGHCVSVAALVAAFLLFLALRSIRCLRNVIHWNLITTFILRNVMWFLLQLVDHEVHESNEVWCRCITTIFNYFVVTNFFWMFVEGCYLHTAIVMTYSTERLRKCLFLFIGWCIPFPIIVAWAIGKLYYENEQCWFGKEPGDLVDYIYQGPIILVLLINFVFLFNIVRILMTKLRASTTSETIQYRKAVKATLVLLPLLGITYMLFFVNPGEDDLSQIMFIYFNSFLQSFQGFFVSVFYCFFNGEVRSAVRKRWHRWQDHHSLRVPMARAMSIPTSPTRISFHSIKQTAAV
T1 sequence (P24387 whole entry): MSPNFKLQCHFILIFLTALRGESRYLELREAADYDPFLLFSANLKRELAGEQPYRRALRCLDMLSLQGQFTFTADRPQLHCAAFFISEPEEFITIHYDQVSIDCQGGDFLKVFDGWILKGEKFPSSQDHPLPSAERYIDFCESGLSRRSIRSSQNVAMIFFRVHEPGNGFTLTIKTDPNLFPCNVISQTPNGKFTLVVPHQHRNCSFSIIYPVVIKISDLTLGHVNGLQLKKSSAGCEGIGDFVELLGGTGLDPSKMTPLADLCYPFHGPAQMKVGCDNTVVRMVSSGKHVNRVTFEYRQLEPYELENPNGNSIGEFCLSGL
Nature of the experiment: Dose Response confirmation of uHTS hits for small molecule antagonists of the CRF-binding protein and CRF-R2 receptor complex. The note with it: read-out: IC50_Mean. Type of experiment: functional.

Experiment [2] addresses T1, Corticotropin-releasing factor receptor 2/Corticotropin-releasing factor-binding protein. Nature of the experiment: activators of CRF receptor 2 with binding protein – uHTS hits, confirmation (AID 602473). In kind it is functional. The following applies: read-out: EC50_Mean.
Experiment [3] has as its system Vero. Put plainly: Vero cell toxicity, dose response, cytotoxicity control, plate reader, cherry-pick samples (AID 687020). The note with it: Chlorocebus sabaeus. In kind it is functional, cell-based.
Experiment [4] in a line: inhibitors of intracellular T. cruzi replication, confirmation, NIH3T3 host cells, beta-gal luminescence (AID 2044).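 Note: intracellular parasites grown in NIH/3T3 mouse fibroblasts as host cells; luminescent beta-galactosidase reporter signal from transgenic T. cruzi replicating inside host cells; inhibitors lower the luminescence signal.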 Type of experiment: functional, cell-based.
A short description of experiment [5]: ZM109 Env clade C HIV-1 fusion inhibitors, dose response, HeLa effector, CEM target cells, luciferase, cherry-pick (AID 652058). Type of experiment: functional, cell-based.
A short description of experiment [6]: inhibitors of clade B AD8 Env fusion, dose response, cell-based, cherry-pick (AID 652062).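 Note: luciferase signal from cell-cell fusion driven by HIV-1 clade B AD8 Env; potency is for inhibitors of fusion seen as a drop in luminescence.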 In kind it is functional.
Experiment [7] in a line: cytotoxicity toward NIH3T3 fibroblasts, dose response, counter-screen, cell-based, ATP luminescence, mouse fibroblasts (AID 2010).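 Note: cells exposed to compound for about 90 hours before reading.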 Type of experiment: functional. (In general: Counterscreens check selectivity or assay interference.)
Experiment [8] in a line: inhibitors of HIV Env-driven cell fusion, dose response, cherry-pick (AID 652057). Type of experiment: functional, cell-based.
Experiment [9] is described as follows: off-target signal loss in HeLa-CEM21 co-culture – HeLa F-luc CTL cells, cherry-picked, counter-screen for HIV-1 Env fusion inhibitor project, dose response (AID 652040).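 Note: potency for signal decrease marking cytotoxic or nonspecific inhibition.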 Type of experiment: functional, cell-based.
Experiment [10] in a line: CEM21 lymphoblast cell cytotoxicity, dose response, cytotoxicity control for viral fusion inhibitor project, CellTiter-Glo luminescence, cherry-picked (AID 652042).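 Note: potency for signal decrease meaning cytotoxicity.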 Type of experiment: functional, cell-based.
In experiment [11] the test system is H4. Put plainly: Luminescence Cell-Based Dose Response HTS to Identify Activators of 5'UTR Stem-Loop Driven Prion Protein mRNA Translation in H4 Neuroglioblastoma Cells. [Related pubchem assays: 1829 (Project Summary), 1814 (Primary HTS)]. Type of experiment: functional. The note with it: Homo sapiens.
Experiment [12] in a line: Luminescence Cell-Based Dose Response HTS to Identify Activators of Luciferase Translation or Activity in H4 […] Cells. [Related pubchem assays: 1829 (Project Summary), 1814 (Primary HTS)]. Type of experiment: functional.
Experiment [13] has as its target Fructose-bisphosphate aldolase (Mycobacterium tuberculosis, UniProt P9WQA3). Nature of the experiment: Fluorescence-based biochemical high throughput dose response assay for inhibitors of the fructose-bisphosphate aldolase (FBA) of M. tuberculosis. Type of experiment: functional.
Experiment [14] can be described thus: Luminescence Cell-Based Dose Confirmation HTS to Identify Activators of 5'UTR Stem-Loop Driven Alpha-Synuclein mRNA Translation in H4 Neuroglioblastoma Cells. [Related pubchem assays: 1829 (Project Summary), 1814 (Primary HTS)]. Type of experiment: functional.
The target in experiment [15] is Beta-galactosidase (Escherichia coli, UniProt Q8VNN2). Put plainly: Dose response counterscreen for EBI2 assay utilizing the enzyme, b-galactosidase. Type of experiment: functional.
Chain of Beta-galactosidase (Q8VNN2 whole entry): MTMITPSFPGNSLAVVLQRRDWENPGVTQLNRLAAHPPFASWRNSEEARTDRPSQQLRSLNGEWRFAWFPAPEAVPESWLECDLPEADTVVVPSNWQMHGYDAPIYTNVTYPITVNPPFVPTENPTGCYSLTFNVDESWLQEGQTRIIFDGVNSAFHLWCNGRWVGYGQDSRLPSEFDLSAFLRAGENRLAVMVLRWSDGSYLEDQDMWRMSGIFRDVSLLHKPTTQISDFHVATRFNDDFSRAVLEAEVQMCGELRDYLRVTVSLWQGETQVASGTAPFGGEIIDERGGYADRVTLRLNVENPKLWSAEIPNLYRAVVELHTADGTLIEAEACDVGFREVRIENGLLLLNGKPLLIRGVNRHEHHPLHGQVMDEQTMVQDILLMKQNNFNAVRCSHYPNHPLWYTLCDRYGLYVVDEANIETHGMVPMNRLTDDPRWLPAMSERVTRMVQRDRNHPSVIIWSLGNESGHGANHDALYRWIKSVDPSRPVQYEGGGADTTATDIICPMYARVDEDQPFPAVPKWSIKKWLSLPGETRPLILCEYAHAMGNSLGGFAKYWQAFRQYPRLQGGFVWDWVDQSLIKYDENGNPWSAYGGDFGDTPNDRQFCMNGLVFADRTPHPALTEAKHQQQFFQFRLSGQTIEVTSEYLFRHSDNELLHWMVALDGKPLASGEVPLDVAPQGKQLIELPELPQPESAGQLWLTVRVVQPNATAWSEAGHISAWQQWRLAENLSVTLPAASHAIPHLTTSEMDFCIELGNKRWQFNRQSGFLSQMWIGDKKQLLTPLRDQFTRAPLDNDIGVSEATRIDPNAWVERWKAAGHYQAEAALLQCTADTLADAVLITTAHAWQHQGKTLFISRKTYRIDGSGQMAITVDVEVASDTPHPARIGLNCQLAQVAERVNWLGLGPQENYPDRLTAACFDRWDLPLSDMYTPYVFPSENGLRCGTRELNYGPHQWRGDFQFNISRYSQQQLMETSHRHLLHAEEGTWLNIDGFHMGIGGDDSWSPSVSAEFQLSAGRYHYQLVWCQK
Experiment [16] deals with T2, Zinc finger protein mex-5 (Caenorhabditis elegans, UniProt Q9XUB2).
T2 sequence (Q9XUB2 whole entry): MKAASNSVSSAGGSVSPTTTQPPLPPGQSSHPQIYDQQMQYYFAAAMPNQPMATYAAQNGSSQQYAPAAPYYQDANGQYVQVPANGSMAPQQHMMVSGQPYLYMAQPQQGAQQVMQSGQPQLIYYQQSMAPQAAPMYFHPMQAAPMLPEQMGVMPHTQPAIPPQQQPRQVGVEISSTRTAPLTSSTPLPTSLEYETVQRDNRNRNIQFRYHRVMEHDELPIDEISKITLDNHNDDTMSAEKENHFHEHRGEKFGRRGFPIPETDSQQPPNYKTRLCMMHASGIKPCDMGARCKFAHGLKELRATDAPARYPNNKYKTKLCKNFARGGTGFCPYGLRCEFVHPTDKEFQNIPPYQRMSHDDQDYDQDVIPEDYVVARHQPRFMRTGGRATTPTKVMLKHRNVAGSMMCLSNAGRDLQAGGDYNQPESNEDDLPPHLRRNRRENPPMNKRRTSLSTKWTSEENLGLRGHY
Put plainly: MEX-5/TCR-2 RNA interaction inhibitors, dose response, biochemical, C. elegans, fluorescence polarization (AID 1960). For orientation: Fluorescence polarisation rises when a labelled molecule tumbles more slowly, as on binding a larger partner.

The target of experiment [17] is T3, Sentrin-specific protease 1 (Homo sapiens, UniProt Q9P0U3). Put plainly: Dose response confirmation of small molecule inhibitors of the catalytic domain of the SUMO protease, SENP1 in a FRET assay. Type of experiment: functional. The note with it: read-out: IC50_Mean.
T3 sequence (Q9P0U3 whole entry, the tested form may be a part): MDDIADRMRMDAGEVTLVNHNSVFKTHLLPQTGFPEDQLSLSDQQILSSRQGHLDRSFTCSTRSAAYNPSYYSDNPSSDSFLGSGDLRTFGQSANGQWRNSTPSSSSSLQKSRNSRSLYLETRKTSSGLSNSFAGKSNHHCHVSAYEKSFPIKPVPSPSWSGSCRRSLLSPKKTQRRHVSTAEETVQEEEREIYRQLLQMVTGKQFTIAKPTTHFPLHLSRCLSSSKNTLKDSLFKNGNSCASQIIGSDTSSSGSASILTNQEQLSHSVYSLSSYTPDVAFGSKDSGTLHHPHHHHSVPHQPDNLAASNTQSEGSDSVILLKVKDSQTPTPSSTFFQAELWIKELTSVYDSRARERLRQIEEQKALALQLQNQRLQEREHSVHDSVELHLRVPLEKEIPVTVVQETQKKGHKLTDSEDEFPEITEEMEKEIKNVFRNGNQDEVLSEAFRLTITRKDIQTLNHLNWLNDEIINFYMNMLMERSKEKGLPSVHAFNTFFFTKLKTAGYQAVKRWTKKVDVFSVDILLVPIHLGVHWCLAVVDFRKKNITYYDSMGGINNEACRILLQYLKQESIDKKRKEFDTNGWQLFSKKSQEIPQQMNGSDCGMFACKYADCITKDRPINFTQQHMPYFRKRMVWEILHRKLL
The target in experiment [18] is T4, Endoribonuclease toxin MazF (Escherichia coli K-12, UniProt P0AE70).
T4 sequence (P0AE70 whole entry): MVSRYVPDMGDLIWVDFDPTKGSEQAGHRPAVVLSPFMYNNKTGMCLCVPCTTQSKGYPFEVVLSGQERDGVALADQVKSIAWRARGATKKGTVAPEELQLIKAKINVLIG
Nature of the experiment: fluorescent RNA oligo signal without MazF, dose response, counter-screen for MazEF activator project, biochemical, fluorescence, single-stranded RNase substrate (AID 588502). In kind it is functional.

For experiment [19], the target named is T3, Sentrin-specific protease 1. Put plainly: potency of human SENP1 inhibitors, dose response, biochemical, kinetic FRET (AID 651697). The following applies: read-out: IC50_Mean. Type of experiment: functional.
In experiment [20] the target is T5, RNA-binding protein pos-1 (Caenorhabditis elegans, UniProt G5EF15).
T5 sequence (G5EF15 whole entry): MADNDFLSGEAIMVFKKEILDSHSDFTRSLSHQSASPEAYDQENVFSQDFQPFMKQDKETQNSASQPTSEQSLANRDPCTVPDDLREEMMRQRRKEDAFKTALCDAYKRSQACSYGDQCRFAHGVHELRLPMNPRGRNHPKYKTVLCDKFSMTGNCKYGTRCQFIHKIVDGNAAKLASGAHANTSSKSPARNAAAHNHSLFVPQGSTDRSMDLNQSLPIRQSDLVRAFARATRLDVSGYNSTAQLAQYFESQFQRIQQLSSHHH
Nature of the experiment: inhibitors of POS-1/mex-3 RNA binding, dose response, biochemical, fluorescence polarization (AID 1964).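 Note: purified POS-1 fused to maltose binding protein made in E. coli; potency of compounds blocking POS-1 binding to fluorescent RNA.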

The target of experiment [21] is T4, Endoribonuclease toxin MazF. Put plainly: MazF toxin RNase activators, dose response, biochemical, fluorescence, single-stranded RNA substrate, uHTS hits (AID 588481). In kind it is functional.
The target of experiment [22] is Broad substrate specificity ATP-binding cassette transporter ABCG2 (Homo sapiens, UniProt Q9UNQ0). Put plainly: ABCG2 efflux pump inhibitors, dose response, Ig-MXP3 cells, flow cytometry (AID 1690). Type of experiment: functional.
Chain of Broad substrate specificity ATP-binding cassette transporter ABCG2 (Q9UNQ0 whole entry): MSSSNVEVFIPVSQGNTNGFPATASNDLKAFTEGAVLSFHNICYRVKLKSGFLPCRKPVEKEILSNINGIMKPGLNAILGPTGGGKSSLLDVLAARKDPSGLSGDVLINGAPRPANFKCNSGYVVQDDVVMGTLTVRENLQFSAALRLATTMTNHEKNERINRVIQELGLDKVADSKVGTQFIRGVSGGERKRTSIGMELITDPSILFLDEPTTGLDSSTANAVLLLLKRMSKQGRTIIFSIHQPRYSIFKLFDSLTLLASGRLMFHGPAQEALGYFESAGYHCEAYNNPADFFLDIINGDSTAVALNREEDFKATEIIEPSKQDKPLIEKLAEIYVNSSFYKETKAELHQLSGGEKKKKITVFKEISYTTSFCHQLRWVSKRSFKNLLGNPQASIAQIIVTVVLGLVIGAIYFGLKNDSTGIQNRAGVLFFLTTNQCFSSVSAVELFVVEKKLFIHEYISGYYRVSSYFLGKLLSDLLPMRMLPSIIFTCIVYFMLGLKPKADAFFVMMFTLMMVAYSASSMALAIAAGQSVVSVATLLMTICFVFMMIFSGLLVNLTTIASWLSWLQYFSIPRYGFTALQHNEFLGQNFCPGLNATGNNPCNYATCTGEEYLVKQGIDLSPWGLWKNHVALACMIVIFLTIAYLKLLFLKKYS
Experiment [23] addresses ATP-dependent translocase ABCB1 (Homo sapiens, UniProt P08183). Put plainly: ABCB1 efflux pump inhibitor potency, dose response, Jurkat-DNR cells, JC-1, flow cytometry (AID 1689). In kind it is functional. (In general: Flow cytometry measures light scatter and fluorescence of single cells or particles in a stream.)

The source made the active and inactive calls.

Chain of ATP-dependent translocase ABCB1 (P08183 whole entry): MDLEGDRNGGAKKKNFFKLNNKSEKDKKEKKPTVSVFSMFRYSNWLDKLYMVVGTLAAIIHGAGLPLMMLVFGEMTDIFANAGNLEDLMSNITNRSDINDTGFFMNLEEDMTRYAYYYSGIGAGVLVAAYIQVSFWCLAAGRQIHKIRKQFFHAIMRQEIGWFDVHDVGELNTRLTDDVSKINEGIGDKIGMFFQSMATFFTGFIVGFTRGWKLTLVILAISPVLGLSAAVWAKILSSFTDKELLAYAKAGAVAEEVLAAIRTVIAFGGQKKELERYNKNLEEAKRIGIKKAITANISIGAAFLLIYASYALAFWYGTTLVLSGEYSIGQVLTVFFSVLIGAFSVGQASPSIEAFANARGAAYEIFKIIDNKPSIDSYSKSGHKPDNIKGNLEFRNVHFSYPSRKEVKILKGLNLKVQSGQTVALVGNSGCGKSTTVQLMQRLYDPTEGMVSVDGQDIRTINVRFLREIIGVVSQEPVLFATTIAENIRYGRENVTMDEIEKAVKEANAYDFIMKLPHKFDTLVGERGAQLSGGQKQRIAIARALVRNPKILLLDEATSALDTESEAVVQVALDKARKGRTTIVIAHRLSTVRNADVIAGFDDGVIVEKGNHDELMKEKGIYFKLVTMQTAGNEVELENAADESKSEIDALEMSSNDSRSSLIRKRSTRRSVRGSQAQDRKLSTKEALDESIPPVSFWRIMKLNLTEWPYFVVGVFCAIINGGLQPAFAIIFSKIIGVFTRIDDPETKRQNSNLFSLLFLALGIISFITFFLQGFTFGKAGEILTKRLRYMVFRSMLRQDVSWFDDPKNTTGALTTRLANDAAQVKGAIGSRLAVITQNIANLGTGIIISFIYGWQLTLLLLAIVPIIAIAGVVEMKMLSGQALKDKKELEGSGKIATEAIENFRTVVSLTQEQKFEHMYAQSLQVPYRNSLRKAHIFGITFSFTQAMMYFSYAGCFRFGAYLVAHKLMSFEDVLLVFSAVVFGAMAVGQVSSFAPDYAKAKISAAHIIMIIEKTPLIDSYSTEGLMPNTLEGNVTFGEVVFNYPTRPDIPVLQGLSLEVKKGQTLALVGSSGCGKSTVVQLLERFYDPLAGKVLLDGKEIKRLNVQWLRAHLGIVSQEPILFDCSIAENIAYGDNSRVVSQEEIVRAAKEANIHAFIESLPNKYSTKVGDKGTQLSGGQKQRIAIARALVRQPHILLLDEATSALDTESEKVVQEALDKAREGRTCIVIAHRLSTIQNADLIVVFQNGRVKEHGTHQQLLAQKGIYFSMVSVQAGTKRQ
Chain of Fructose-bisphosphate aldolase (P9WQA3 whole entry): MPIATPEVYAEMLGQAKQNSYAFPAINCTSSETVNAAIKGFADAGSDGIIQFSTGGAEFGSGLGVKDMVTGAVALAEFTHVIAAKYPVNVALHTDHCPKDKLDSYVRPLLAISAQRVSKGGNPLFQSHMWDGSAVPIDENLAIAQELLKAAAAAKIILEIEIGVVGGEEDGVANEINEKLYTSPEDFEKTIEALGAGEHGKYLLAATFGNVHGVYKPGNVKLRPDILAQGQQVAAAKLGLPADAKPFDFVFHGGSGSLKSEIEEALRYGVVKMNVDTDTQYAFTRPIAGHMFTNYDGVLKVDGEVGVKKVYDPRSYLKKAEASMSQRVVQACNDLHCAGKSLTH

A word on the AC50: it is the concentration giving half of the maximal activity seen. `CCCn1c(=N)n(CC(O)COc2ccc(C)cc2)c2ccccc21` (stereo not drawn): the IC50 in [1] was > 47.1 µM (inactive). Also, in experiment [2], the EC50 was > 53 µM (inactive). Further, the AC50 in experiment [3] is 24.6 µM (active).

Turning to `CCN(CC(O)CON=C1c2ccccc2-c2ccccc21)S(=O)(=O)c1ccc(Cl)cc1` (stereo not drawn), the EC50 in [4] was 2.15 µM (active); in experiment [7], > 60 µM (not active). Moreover, the AC50 was 16.3 µM (active) in experiment [5]; 28.6 µM (active) in experiment [6]; 5.8 µM (active) in [8]; 10.1 µM (active) in [9]; 29.3 µM (active) in experiment [10].

With `Cc1ccc(C2CC(c3ccccc3)=NN2c2ccccc2)o1` (stereo not drawn), the EC50 was 27.9 µM (active) in experiment [11], > 120 µM (not active) in [12] and 111 µM (active) in experiment [14]. Moreover, in [13], the IC50 is > 0.37 µM (active).

As to `Cc1c(C(=O)N2CCN(c3ncccn3)CC2)oc2ccc(Cl)cc12`, the IC50 in experiment [15] was > 80 µM (inactive).

With `COc1ccc2c(c1)c1nc3ccccc3nc1n2Cc1ccc(OC)c(OC)c1`, the EC50 in [16] was 43.1 µM (active); in experiment [18], 87.9 µM (inactive); in experiment [20], 32.6 µM (active); in experiment [21] it was > 99 µM (inactive). Moreover, the IC50 in experiment [17] was 6.84 µM (active); in experiment [19], 14.1 µM (active).

Regarding `N#Cc1ccc(-c2ccc(OCC(=O)NCCc3ccccc3)cc2)cc1`, the results for the EC50 in experiment [22] and in [23] were 3.76 µM (active) and 11.1 µM (inactive), respectively.

Source of the values: ChEMBL document CHEMBL1201862, “PubChem BioAssay data set” (2004).
